{"source": "paper PMC10818589", "about": "(2024)", "system": "d(5′-CGCGAATTCGCG-3′)2 (DNA, duplex) CGCGAATTCGCG", "test": "ethidium bromide displacement, fluorescence quenching, double-log plot", "conditions": "phosphate buffer 100 mM (cation not given); pH 7.0, 298 K; 20 μM duplex saturated with EtBr (5.07 μM), displaced; compound slowly decomposes in water; apparent"}
{"smiles": "[Ru+2].[Ru+2].[Ru+2].[Ru+2].[Ru+2].[Ru+2].[Ru+2].[Ru+2].[Ru+2].[Ru+2].[Ru+2].[Ru+2].c1cc2ccc1-c1ccc(cc1)-c1ccc(cc1)-c1ccc(cc1)-c1ccc(cc1)-c1ccc(cc1)-c1ccc(cc1)-c1ccc(cc1)-c1ccc(cc1)-c1ccc(cc1)-c1ccc(cc1)-c1ccc-2cc1.c1cc[cH-]c1.c1cc[cH-]c1.c1cc[cH-]c1.c1cc[cH-]c1.c1cc[cH-]c1.c1cc[cH-]c1.c1cc[cH-]c1.c1cc[cH-]c1.c1cc[cH-]c1.c1cc[cH-]c1.c1cc[cH-]c1.c1cc[cH-]c1", "values": [{"measurement": "Kb", "result": "3.162 × 10^5 ± 0.001 M^-1"}]}
